{"source": "ChEMBL document CHEMBL1201862", "about": "“PubChem BioAssay data set” (2004)", "key": {"Streptococcus [1]": {"tested_on": "Streptococcus", "test": "Luminescence Microorganism-Based Dose Response Follow up to Identify Compounds Cytotoxic to Streptococcus. [Related pubchem assays: 1677 (Project Summary), 1915, 1914, 1902 (Retest at Dose), 1900 (Counter Screen), 1662 (Primary HTS)]", "format": "functional, organism-based"}, "[2]": {"tested_on": "Streptococcus sp. 'group A'", "test": "growth inhibition of control SK(-) GAS strain, dose response, counter-screen for streptokinase expression inhibitor project, luminescence, kanamycin, BacTiterGlo, confirmation (AID 1900)", "format": "functional, organism-based"}, "Streptococcus [3]": {"tested_on": "Streptococcus", "test": "Group A Streptococcus viability loss, dose response, counter-screen for streptokinase expression inhibitor project, luminescence, BacTiterGlo (AID 1915);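 note: potency for reduction of bacterial viability or growth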", "format": "functional, organism-based"}, "cells [4]": {"test": "cells", "format": "functional, cell-based"}, "cells [5]": {"test": "cells", "format": "functional, cell-based", "remark": "listed apart in the source"}, "[6]": {"test": "A Cell Based Secondary Assay To Explore Cytotoxicity of Compounds that Sensitize Mycobacterium Tuberculosis to Beta-Lactam Antibiotics.", "format": "functional"}, "Bcl-2-like protein 10": {"target": "T1, Bcl-2-like protein 10 (Homo sapiens, UniProt Q9HD36)", "T1 sequence (Q9HD36 whole entry)": "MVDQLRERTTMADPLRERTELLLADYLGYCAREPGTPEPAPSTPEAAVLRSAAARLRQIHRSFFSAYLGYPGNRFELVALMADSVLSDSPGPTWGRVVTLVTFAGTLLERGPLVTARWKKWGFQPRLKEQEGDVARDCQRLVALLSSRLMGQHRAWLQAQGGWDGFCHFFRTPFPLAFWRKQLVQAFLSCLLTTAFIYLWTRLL", "test": "Biochemical TR3 FP assay of Bcl-B inhibitor potency, EC50 (AID 1243)", "format": "functional"}}, "note": "Activity calls are given as the source filed them. Cut-off read from the data, not from the text of the source, for most assays here: actives have a measured EC50 and inactives only a lower limit."}
{"smiles": "O=C(CSc1nc(O)nc(-c2ccc(Cl)cc2)n1)Nc1cccc(Cl)c1", "values": [{"measurement": "EC50", "setting": "Streptococcus [1]", "value": "26.2 µM (active)"}, {"measurement": "EC50", "setting": "[2]", "value": "4.35 µM (active)"}, {"measurement": "EC50", "setting": "Streptococcus [3]", "value": "> 150 µM (not active)"}]}
{"smiles": "CC(C)N=C(S)NN=C1c2ccccc2-c2ccccc21", "values": [{"measurement": "EC50", "setting": "cells [4]", "value": "> 350 µM (not active)"}, {"measurement": "EC50", "setting": "cells [5]", "value": "> 350 µM (not active)"}, {"measurement": "CC50", "setting": "[6]", "value": "> 40 µM (active)"}]}
{"smiles": "COc1ccc(SCC(=O)N2c3ccccc3Sc3ccccc32)cc1", "values": [{"measurement": "EC50", "setting": "Streptococcus [1]", "value": "> 500 µM (not active)"}]}
{"smiles": "COc1cc(C2Nc3ccc4ccccc4c3C3=C2C(=O)CC(C)(C)C3)c(Br)cc1O", "note": "(stereo not given)", "values": [{"measurement": "EC50", "setting": "Bcl-2-like protein 10", "value": "13.1 µM (active)"}]}
{"smiles": "Cn1c(=O)cc2c3c(c(Nc4ccc(C=O)cc4)ccc31)C(=O)c1ccccc1-2", "values": [{"measurement": "EC50", "setting": "Bcl-2-like protein 10", "value": "8.04 µM (active)"}]}
{"smiles": "CCOC(=O)c1c(C)[nH]c(C)c1C(=O)COC(=O)c1ccc(S(=O)(=O)N(CC)CC)cc1", "values": [{"measurement": "CC50", "setting": "[6]", "value": "> 40 µM (active)"}]}
